Earlier results in patent US5977138A, “Ether muscarinic antagonists” (Schering Corporation, priority 1997, dated 1999).

System: m2 muscarinic receptor
Conditions: Baumgold et al., Eur. J. of Pharmacol., 251 (1994) 315-317

C[C@H]1CC[C@@H]2N(C1)C[C@H]1[C@@H]3C[C@H]4[C@@H](CC(=O)[C@H]5C[C@@H](Cl)CC[C@@]54C)[C@@H]3CC[C@H]1[C@]2(C)O [3-α-chloroimperialine]
m2 selective muscarinic antagonism: highly selective m2 muscarinic antagonist
